Source: patent US9320734B2, “Small molecule inhibitors of the pleckstrin homology domain and methods for using same” (Board of Regents, The University of Texas System, priority 2008, dated 2016)
Values after ≈ are worked out from the molar mass of the structure shown.

Key:
[1] = system: Panc-1 pancreatic cell line; assay: Apoptosis, morphological assay, Panc-1 cells; assay type: cell-based, human; settings: Panc-1, morphological assay
Excerpt: (§1) AKT inhibition leads to cellular apoptosis.

[2] = system: phospho-Ser473-AKT in Panc-1 cells; assay: Cellular AKT inhibition, Western blot phospho-Ser473-AKT, Panc-1 cells; settings: Homo sapiens, PANC-1, read-out: pAKT inhibition (IC50)
[3] = system: phospho-Ser473-AKT in MiaPaCa-2 cells; assay: Cellular AKT inhibition, Western blot phospho-Ser473-AKT, MiaPaCa-2 cells; settings: Homo sapiens, MIA PaCa-2, read-out: pAKT inhibition (IC50)
[4] = system: MiaPaca-2 pancreatic cell line; assay: Apoptosis, morphological assay, MiaPaCa-2 cells; assay type: cell-based, human; settings: MiaPaca-2, morphological assay
Excerpt: as §1

AKT PH domain = AKT PH domain (Homo sapiens (Human), UniProt P31749); assay: SPR spectroscopy direct binding (Biacore 2000); settings: purified AKT PH domain, SPR (Biacore 2000); NB = not binding
Protocol: (§2) Binding assays using SPR and an ELISA competitive binding assay were used to measure the binding affinity (KD) of the compounds to all three PH domains. SPR was carried out as described above. […] Purified GST-PH domains were incubated with increasing concentrations of the compounds under anylsis for about 4 hours in 0.2 M carbonate buffer pH 9.4 and were added to the 96-well plate and incubated overnight at 4° C. Following incubation, the plate was washed 4 times with phosphate buffered 0.9% NaCl (PBS), blocked with 3% bovine serum albumin (BSA) in PBS and 0.01% Tween for 1 hour, washed again 4 times with PBS and mouse monoclonal anti-glutathione-S-transferase antibody in 3% BSA (1:2000) was added for 1 hr at room temperature with shaking. The plate was washed 4 times with PBS and an anti-mouse IgG horseradish peroxidase coupled antibody (dilution 1:2000 in 3% BSA) was added for 1 hr. After 4 washes with PBS, 2,2′-azinobis[3-ethylbenzothiazoline-6-sulfonic acid]-diammonium salt (ABST) was added and the reaction was allowed to develop for 30 min.

[5] = system: total AKT in scid mouse skin; assay: Topical application, total AKT immunohistochemistry in skin; assay type: in vivo, scid mice; settings: 20 mg/ml in 0.1 ml acetone topically; between 1 and 4 hours, reappears after 24 hours
Protocol: Skin biopsies were taken and immunohistochemistry for AKT was performed on the sections. […] Staining was measured by quantitative immunohistochemistry with correction for non-specific background staining (p<0.05). Phospho-Ser^473-AKT was not detectable in dermal layer. FIG. 15C summarizes the effects of compound over a 24 hour period as determined by Western blot analysis performed as described above.

BxPC-3 pancreatic cancer = assay: Antitumor activity, oral dosing, BxPC-3 xenograft; assay type: in vivo, scid mice; settings: BxPC-3, oral
MCF-7 breast cancer = assay: Antitumor activity, oral dosing, MCF-7 xenograft; assay type: in vivo, scid mice; settings: MCF-7, oral
[6] = Plasma levels of compound 104 (HPLC); assay type: in vivo, scid mice; settings: single 125 mg/kg i.p. dose, between 1 and 6 h
Protocol: (§3) This observation was tested using pharmacodynamic and pharmacokinetic studies. […]. […] Western blotting was performed as described above. […].

HaCaT cells = assay: Apoptosis (PARP cleavage), HaCaT cells; assay type: cell-based, human; settings: 10 μM
Excerpt: (§4) Normal morphogenesis and differentiation features of skin keratinocytes are retained in the HaCaT cultures.

HaCat-II,4 cells = assay: Apoptosis (PARP cleavage), HaCaT-II,4 cells; assay type: cell-based, human; settings: 10 μM
Excerpt: as §4

SKOV-3 ovarian cancer = assay: Antitumor activity, oral dosing, SKOV-3 xenograft; assay type: in vivo, scid mice; settings: SKOV-3, oral, 250 mg/kg BID × 10 D
[7] = assay type: in vivo; settings: single doses up to 250 mg/kg; preliminary studies
Protocol: as §3

PC3 prostate cancer = assay: Antitumor activity, oral dosing, PC3 xenograft; assay type: in vivo, scid mice; settings: 125 mg/kg BID × 5 D
A549 nsc lung cancer = assay: Antitumor activity, oral dosing, A549 xenograft; assay type: in vivo, scid mice; settings: 200 mg/kg BID × 10 D
[8] = system: phospho-Ser473-AKT in BxPC-3; assay: Cellular AKT inhibition, Western blot phospho-Ser473-AKT, BxPC-3 cells; assay type: cell-based, human; settings: BxPC-3 cells, Western blot
[9] = system: BXPC3 pancreatic tumor cells, MCF-7 breast tumor cells, and A549 nscl lung cancer cells; assay: Antitumor activity of alkyl chain analogs in subcutaneous xenografts (FIG. 9); assay type: in vivo; settings: 200 mg/kg twice a day for 10 days
[10] = Pharmacokinetics of compound 316, plasma concentrations
[11] = system: phospho-Ser473 AKT in NIH3T3 cells; assay: Cellular AKT inhibition, phospho-Ser473 AKT, NIH3T3 cells; assay type: cell-based; settings: mouse NIH3T3, phospho-Ser473 AKT
Protocol: (§5) AKT activity was measured by Western blotting using anti-[…] AKT antibody. Downstream targets of AKT were detected also by Western blotting using specific anti-phospho antibodies and anti-actin was used as a loading control.

[12] = system: HT-29 colon cancer xenografts; assay: Antitumor activity, HT-29 colon cancer xenografts; assay type: in vivo, scid mice; settings: orally for 5 days, daily dose 250 mg/kg
Protocol: (§6) AKT and phospo-Ser-AKT values are the mean of 4 mice and bars are S.E., *p<0.05, **p<0.01. Additionally, 24 hours after administration there was an unexpected significant decrease in the apparent total AKT concentration compared to an actin loading control.

[13] = system: phospho-Ser473-AKT in HT-29 cells; assay: Cellular AKT inhibition, Western blot phospho-Ser473-AKT, HT-29 cells; assay type: cell-based; settings: human HT-29 colon cancer cells
Protocol: as §1, §5

[14] = system: phospho-Ser-AKT in HT-29 xenograft tumors; assay: Tumor phospho-Ser-AKT in HT-29 xenografts; assay type: in vivo, scid mice
Protocol: as §6

HT-29 cells [15] = assay: Cell survival / cytotoxicity, MTT assay, HT-29 cells; assay type: cell-based, human; settings: HT-29 cells; NI = not inhibitory; read-out: Cytotoxicity (IC50 μM)
Solubility = assay type: physicochemical
PH domain of PDK1 = PH domain of PDK1 (Homo sapiens (Human), UniProt O15530); assay: SPR direct binding to PDK1 PH domain; settings: NB = no measurable binding, read-out: PDK1 PH mKD
Protocol: as §2

HT-29 cells [16] = assay: Metabolic stability under cell culture conditions (incubation with HT-29 cells); assay type: in vitro ADME, human; settings: for Metabolic half life: incubating with HT-29 cells at maximum DMEM concentration at 37° C.
Excerpt: Compound 6 was too insoluble to obtain data.

IRS1 PH domain = IRS1 PH domain (Homo sapiens (Human), UniProt P35568); assay: SPR direct binding to IRS1 PH domain; settings: NB = no measurable binding, read-out: IRS1 PH mKD
Protocol: as §2

Chain of PH domain of PDK1 (O15530 459-550): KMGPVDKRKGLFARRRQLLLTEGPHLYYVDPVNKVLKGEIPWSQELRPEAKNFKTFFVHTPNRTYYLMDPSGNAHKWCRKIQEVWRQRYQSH
Chain of IRS1 PH domain (P35568 12-115): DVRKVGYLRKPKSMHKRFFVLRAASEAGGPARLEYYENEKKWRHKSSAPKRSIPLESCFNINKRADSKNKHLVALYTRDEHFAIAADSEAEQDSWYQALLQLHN
Chain of AKT PH domain (P31749 5-108): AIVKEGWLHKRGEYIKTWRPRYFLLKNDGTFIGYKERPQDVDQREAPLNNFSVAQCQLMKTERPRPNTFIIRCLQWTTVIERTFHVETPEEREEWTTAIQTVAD

CC(=O)Nc1ccc(S(=O)(=O)Nc2nncs2)cc1 [Compound 102, N-(4-(N-1,3,4-Thiadiazol-2-ylsulfamoyl)phenyl)acetamide]
Apoptosis at 20 μmol/L [1]: 6.8 ± 0.9/ % | IC50 [2]: > 50 µM | IC50 [3]: > 50 µM | Apoptosis at 20 μmol/L [4]: 10.3 ± 2.1% | KD (AKT PH domain): did not appear to bind directly

CCCCCCCCCCCCc1ccc(S(=O)(=O)Nc2nncs2)cc1 [Compound 104, 4-Dodecyl-N-(1,3,4-thiadiazol-2-yl)benzenesulfonamide]
Total Akt staining in skin [5]: decreased significantly overtime | Growth rate mm^3/10 days (BxPC-3 pancreatic cancer; 100 mg/kg BID × 10 D): 181 ± 52 mm^3/10 days | T/C % (BxPC-3 pancreatic cancer; 100 mg/kg BID × 10 D): 64.8% | Growth rate mm^3/10 days (BxPC-3 pancreatic cancer; 125 mg/kg BID × 5 D): 67 ± 35 mm^3/10 days | T/C % (BxPC-3 pancreatic cancer; 125 mg/kg BID × 5 D): 29.4% | Growth rate mm^3/10 days (BxPC-3 pancreatic cancer; 200 mg/kg BID × 10 D): 77 ± 44 mm^3/10 days | T/C % (BxPC-3 pancreatic cancer; 200 mg/kg BID × 10 D): 27.6% | Growth rate mm^3/10 days (BxPC-3 pancreatic cancer; 250 mg/kg BID × 5 D): 46 ± 53 mm^3/10 days | T/C % (BxPC-3 pancreatic cancer; 250 mg/kg BID × 5 D): 20.1% | Apoptosis at 20 μmol/L [1]: 40.0 ± 2.9/ % | Growth rate mm^3/10 days (MCF-7 breast cancer; 100 mg/kg BID × 10 D): 383 ± 139 mm^3/10 days | T/C % (MCF-7 breast cancer; 100 mg/kg BID × 10 D): 93.4% | Growth rate mm^3/10 days (MCF-7 breast cancer; 200 mg/kg BID × 10 D): 156 ± 30 mm^3/10 days | T/C % (MCF-7 breast cancer; 200 mg/kg BID × 10 D): 38.0% | plasma concentration [6]: a peak corresponding to compound 104 was detected in the plasma | apoptosis (HaCaT cells): 80% | apoptosis (HaCat-II,4 cells): 60% | Growth rate mm^3/10 days (SKOV-3 ovarian cancer): 122 ± 16 mm^3/10 days | T/C % (SKOV-3 ovarian cancer): 28.3% | toxicity [7]: not toxic | Growth rate mm^3/10 days (PC3 prostate cancer): 470 ± 121 mm^3/10 days | T/C % (PC3 prostate cancer): 60.3% | Growth rate mm^3/10 days (A549 nsc lung cancer): 182 ± 47 mm^3/10 days | T/C % (A549 nsc lung cancer): 44.1% | GSK3β and p70S6K phosphorylation [8]: inhibited in a dose-dependent manner | Apoptosis at 20 μmol/L [4]: 31.3 ± 1.6%

CCCCc1ccc(S(=O)(=O)Nc2nncs2)cc1 [Compound 155, 4-Butyl-N-(1,3,4-thiadiazol-2-yl)benzenesulfonamide]
antitumor activity [9]: inactive

CC1=NN(C(=O)c2ccc(Cl)cc2)C(=O)C1/N=N/c1ccc(S(=O)(=O)Nc2ncccn2)cc1 (centres unmarked) [Compound 316, (E)-4-((1-(4-chlorobenzoyl)-3-methyl-5-oxo-4,5-dihydro-1H-pyrazol-4-yl)diazenyl)-N-(pyrimidin-2-yl)benzenesulfonamide]
toxicity, repeated dose (Toxicity of compound 316; five daily doses of 250 mg/kg i.p.): moderate neutropenia but no other sign of toxicity | toxicity, single dose (Toxicity of compound 316; single dose of up to 250 mg/kg, preliminary studies): no toxicity | elimination ([10]; 250 mg/kg): eliminated relatively rapidly over about a 24 hr period | peak plasma concentration ([10]; single dose 250 mg/kg i.p.): 1.4 µM | peak plasma concentration ([10]; single dose 250 mg/kg oral): 0.6 µM | IC50 [11]: 4 µM | antitumor activity [12]: no activity | IC50 [13]: 13 µM | tumor phospho-Ser-AKT ([14]; 4 hours after a single 250 mg/kg dose): inhibition of tumor phospho-Ser-AKT was observed | tumor phospho-Ser-AKT ([14]; 24 hours after a single 250 mg/kg dose): appears to lost

CC1=NN(C(=O)c2ccc(C(C)(C)C)cc2)C(=O)C1/N=N/c1ccc(S(=O)(=O)Nc2ncccn2)cc1 (centres unmarked) [Compound 332]
IC50 (HT-29 cells [15]): 25 µM | IC50 [11]: > 20 µM | Solubility (Solubility): 28.6 µM (≈ 14.9 µg/mL) | IC50 [13]: > 20 µM | Kd (PH domain of PDK1): 3.57 µM | Metabolic half life (HT-29 cells [16]): 1.52 h

CC1=NN(C(=O)c2ccc(N)cc2)C(=O)C1/N=N/c1ccc(S(=O)(=O)Nc2ncccn2)cc1 (centres unmarked) [Compound 333]
Kd (IRS1 PH domain): 0.14 ± 0.02 µM | Solubility (Solubility): 12.9 µM (≈ 6.17 µg/mL) | IC50 [13]: > 20 µM | Metabolic half life (HT-29 cells [16]): >8 h | stability under cell culture conditions (HT-29 cells [16]; over the time period studied): did not appear to breakdown

CC1=NN(C(=O)c2ccc(O)cc2)C(=O)C1/N=N/c1ccc(S(=O)(=O)Nc2ncccn2)cc1 (centres unmarked) [Compound 360]
Kd (IRS1 PH domain): 1.74 ± 0.41 µM | IC50 [11]: 5 µM | Solubility (Solubility): 13.1 µM (≈ 6.28 µg/mL) | IC50 [13]: > 20 µM | Kd (PH domain of PDK1): 0.42 µM | Metabolic half life (HT-29 cells [16]): 2.3 h
